Measured values as given in patent US20080194574A1, “Pyrazine Derivatives As Effective Compounds Against Infectious Diseases” (AXXIMA PHARMACEUTICALS AG, priority 2003, published 2008).

Molecular target: T1, viral kinase pUL-97 (Human cytomegalovirus, UniProt P16788)
T1 construct: The pUL-97 gene was cloned into a baculovirus vector; GST (glutathione S-transferase) (N); made in house; host or cells: Sf9 insect cells, baculovirus
Test: UL97 kinase assay on Immobilon plate
Type: biochemical
Conditions: inhibition of UL 97 kinase activity; class by IC50 / % inhibition at 10 μM or 100 μM; read-out: Activity Class [A, B, C]
Method in brief: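 Compound was titrated into a radiometric reaction of Sf9-expressed GST-UL97 kinase, incubated 1 h at 30 °C in Tris-HCl pH 7.5/MnCl2/DTT buffer before EDTA stop. MBP substrate and ATP (3 μM in the added assay buffer) were supplied with γ-[33P]ATP. Labelled product bound to Immobilon filter was washed and counted by scintillation.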

T1 sequence (P16788 whole entry): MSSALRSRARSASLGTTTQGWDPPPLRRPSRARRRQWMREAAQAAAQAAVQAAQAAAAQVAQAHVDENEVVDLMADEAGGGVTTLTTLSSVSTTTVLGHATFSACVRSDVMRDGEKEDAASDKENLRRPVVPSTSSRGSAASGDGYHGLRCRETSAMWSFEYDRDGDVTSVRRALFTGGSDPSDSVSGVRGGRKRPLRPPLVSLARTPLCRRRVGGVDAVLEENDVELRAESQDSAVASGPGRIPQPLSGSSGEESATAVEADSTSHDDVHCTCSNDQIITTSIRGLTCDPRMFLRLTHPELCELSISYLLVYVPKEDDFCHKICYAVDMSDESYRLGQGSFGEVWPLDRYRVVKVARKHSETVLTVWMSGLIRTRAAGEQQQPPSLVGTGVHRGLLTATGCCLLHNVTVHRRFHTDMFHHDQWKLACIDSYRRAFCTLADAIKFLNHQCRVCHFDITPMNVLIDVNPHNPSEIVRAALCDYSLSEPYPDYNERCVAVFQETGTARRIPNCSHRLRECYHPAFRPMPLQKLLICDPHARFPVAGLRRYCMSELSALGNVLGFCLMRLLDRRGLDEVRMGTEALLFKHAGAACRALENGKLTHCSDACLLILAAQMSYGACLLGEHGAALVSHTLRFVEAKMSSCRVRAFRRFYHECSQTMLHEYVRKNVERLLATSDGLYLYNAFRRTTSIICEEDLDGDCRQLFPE

| Compound | IC50 [µM] |
| --- | --- |
| Fc1cc(-c2cncc(N3CCN(c4cnccn4)CC3)n2)ccc1-c1ccccc1 [compound 334, 6-(2-Fluoro-biphenyl-4-yl)-2′,3′,5′,6′-tetrahydro-[2,1′;4′,2″]terpyrazine] | 10 to 100 |
| COc1ccc(OC)c(-c2cncc(N3CCN(c4ccc(OC)c(OC)c4)CC3)n2)c1 [compound 225, 4-(3,4-Dimethoxy-phenyl)-6′-(2,5-dimethoxy-phenyl)-3,4,5,6-tetrahydro-2H-[1,2′]bipyrazinyl] | 10 to 100 |
| CN(C)c1ccc(-c2cncc(N3CCC(c4ccccc4)CC3)n2)cc1 [compound 280, Dimethyl-{4-[6-(4-phenyl-piperidin-1-yl)-pyrazin-2-yl]-phenyl}-amine] | 1 to 10 |
| CC(=O)c1ccc(-c2cncc(N3CCN(c4cccc(C)c4C)CC3)n2)cc1 [compound 298, 1-{4-[4-(2,3-Dimethyl-phenyl)-3,4,5,6-tetrahydro-2H-[1,2′]bipyrazinyl-6′-yl]-phenyl}-ethanone] | 10 to 100 |
| CN(C)c1ccc(-c2cncc(N3CCN(c4ccc(Cl)c(Cl)c4)CC3)n2)cc1 [compound 357, {4-[4-(3,4-Dichloro-phenyl)-3,4,5,6-tetrahydro-2H-[1,2′]bipyrazinyl-6′-yl]-phenyl}-dimethyl-amine] | 10 to 100 |
| Clc1cccc(N2CCN(c3cncc(-c4csc5ccccc45)n3)CC2)c1 [compound 239, 6′-Benzo[b]thiophen-3-yl-4-(3-chloro-phenyl)-3,4,5,6-tetrahydro-2H-[1,2′]bipyrazinyl] | 10 to 100 |
| CC(=O)c1ccc(-c2cncc(N3CCC(c4ccccc4)CC3)n2)cc1 [compound 362] | 1 to 10 |
| COc1ccc(N2CCN(c3cncc(-c4cc5ccccc5o4)n3)CC2)cc1 [compound 282, 6′-Benzofuran-2-yl-4-(4-methoxy-phenyl)-3,4,5,6-tetrahydro-2H-[1,2′]bipyrazinyl] | 1 to 10 |
| Cc1cc(C)cc(-c2cncc(N3CCN(c4cnccn4)CC3)n2)c1 [compound 344, 6-(3,5-Dimethyl-phenyl)-2′,3′,5′,6′-tetrahydro-[2,1′;4′,2″]terpyrazine] | 10 to 100 |
| CC(=O)c1ccc(N2CCN(c3cncc(-c4ccc(F)cc4)n3)CC2)cc1 [compound 276, 1-{4-[6′-(4-Fluoro-phenyl)-2,3,5,6-tetrahydro-[1,2′]bipyrazinyl-4-yl]-phenyl}-ethanone] | 1 to 10 |
| COc1ccc(N2CCN(c3cncc(-c4ccc(C#N)cc4)n3)CC2)cc1 [compound 293, 4-[4-(4-Methoxy-phenyl)-3,4,5,6-tetrahydro-2H-[1,2′]bipyrazinyl-6′-yl]-benzonitrile] | 1 to 10 |
| COc1ccc(N2CCN(c3cncc(-c4cccc(OC)c4)n3)CC2)cc1 [compound 294, 4-(4-Methoxy-phenyl)-6′-(3-methoxy-phenyl)-3,4,5,6-tetrahydro-2H-[1,2′]bipyrazinyl] | 10 to 100 |

Now from value to compound:

| IC50 [µM] | Compound |
| --- | --- |
| 10 to 100 | OCc1ccccc1-c1cncc(N2CCN(c3ccc(F)cc3F)CC2)n1 [compound 202, {2-[4-(2,4-Difluoro-phenyl)-3,4,5,6-tetrahydro-2H-[1,2′]bipyrazinyl-6′-yl]-phenyl}-methanol] |
| 10 to 100 | CSc1ccc(-c2cncc(N3CCN(c4ccc(Cl)c(Cl)c4)CC3)n2)cc1 [compound 372, 4-(3,4-Dichloro-phenyl)-6′-(4-methylsulfanyl-phenyl)-3,4,5,6-tetrahydro-2H-[1,2′]bipyrazinyl] |
| 1 to 10 | COc1ccc(N2CCN(c3cncc(-c4csc5ccccc45)n3)CC2)cc1OC [compound 227, 6′-Benzo[b]thiophen-3-yl-4-(3,4-dimethoxy-phenyl)-3,4,5,6-tetrahydro-2H-[1,2′]bipyrazinyl] |
| 10 to 100 | Cc1cc(C)cc(-c2cncc(N3CCN(c4cccc(C)c4)C(C)C3)n2)c1 (centres unmarked) [compound 339, 6′-(3,5-Dimethyl-phenyl)-3-methyl-4-m-tolyl-3,4,5,6-tetrahydro-2H-[1,2′]bipyrazinyl] |
| 1 to 10 | Cc1cccc(-c2cncc(N3CCN(c4cnccn4)CC3)n2)c1 [compound 329, 6-m-Tolyl-2′,3′,5′,6′-tetrahydro-[2,1′;4′,2″]terpyrazine] |
| 10 to 100 | OCc1ccc(-c2cncc(N3CCN(c4ccc(F)cc4F)CC3)n2)cc1 [compound 200, {4-[4-(2,4-Difluoro-phenyl)-3,4,5,6-tetrahydro-2H-[1,2′]bipyrazinyl-6′-yl]-phenyl}-methanol] |
| 1 to 10 | COc1ccc(N2CCN(c3cncc(-c4csc5ccccc45)n3)CC2)cc1 [compound 283, 6′-Benzo[b]thiophen-3-yl-4-(4-methoxy-phenyl)-3,4,5,6-tetrahydro-2H-[1,2′]bipyrazinyl] |
| 10 to 100 | CC(C)(C)c1ccc(-c2cncc(N3CCN(c4cnccn4)CC3)n2)cc1 [compound 333, 6-(4-tert-Butyl-phenyl)-2′,3′,5′,6′-tetrahydro-[2,1′;4′,2″]terpyrazine] |

Same assay, conditions: inhibition of UL 97 kinase activity; class by IC50 / % inhibition at 10 or 100 μM; read-out: Activity Class [A, B, C]

| Compound | IC50 [µM] |
| --- | --- |
| Clc1cccc(-c2cncc(N3CCN(c4ccccn4)CC3)n2)c1 [compound 53, 6′-(3-Chloro-phenyl)-4-pyridin-2-yl-3,4,5,6-tetrahydro-2H-[1,2′]bipyrazinyl] | 1 to 10 |
| CC(=O)c1ccccc1-c1cncc(N2CCN(c3cccc(C(F)(F)F)c3)CC2)n1 [compound 153, 1-{2-[4-(3-Trifluoromethyl-phenyl)-3,4,5,6-tetrahydro-2H-[1,2′]bipyrazinyl-6′-yl]-phenyl}-ethanone] | 10 to 100 |
| CC(=O)c1ccc(N2CCN(c3cncc(-c4ccc(C)cc4)n3)CC2)cc1 [compound 148, 1-[4-(6′-p-Tolyl-2,3,5,6-tetrahydro-[1,2′]bipyrazinyl-4-yl)-phenyl]-ethanone] | 1 to 10 |
| FC(F)(F)c1cccc(-c2cncc(N3CCN(c4ccncc4)CC3)n2)c1 [compound 32, 4-Pyridin-4-yl-6′-(3-trifluoromethyl-phenyl)-3,4,5,6-tetrahydro-2H-[1,2′]bipyrazinyl] | < 1 |
| COc1ccccc1N1CCN(c2cncc(-c3ccc(N(C)C)cc3)n2)CC1 [compound 186, {4-[4-(2-Methoxy-phenyl)-3,4,5,6-tetrahydro-2H-[1,2′]bipyrazinyl-6′-yl]-phenyl}-dimethyl-amine] | 10 to 100 |
| CC(=O)c1ccc(-c2cncc(N3CCN(c4ccccc4F)CC3)n2)cc1 [compound 130, 1-{4-[4-(2-Fluoro-phenyl)-3,4,5,6-tetrahydro-2H-[1,2′]bipyrazinyl-6′-yl]-phenyl}-ethanone] | 1 to 10 |
| CSc1ccc(-c2cncc(N3CCN(c4cccc(Cl)c4)CC3)n2)cc1 [compound 102, 4-(3-Chloro-phenyl)-6′-(4-methylsulfanyl-phenyl)-3,4,5,6-tetrahydro-2H-[1,2′]bipyrazinyl] | 1 to 10 |
| CSc1ccc(-c2cncc(N3CCN(c4ccc(F)cc4)CC3)n2)cc1 [compound 140, 4-(4-Fluoro-phenyl)-6′-(4-methylsulfanyl-phenyl)-3,4,5,6-tetrahydro-2H-[1,2′]bipyrazinyl] | 1 to 10 |
| Clc1ccc(-c2cncc(NCc3ccco3)n2)cc1 [compound 26, [6-(4-Chloro-phenyl)-pyrazin-2-yl]-furan-2-ylmethyl-amine] | < 1 |
| CCOc1ccc(-c2cncc(N3CCN(c4ccccc4OC)CC3)n2)cc1 [compound 92, 6′-(4-Ethoxy-phenyl)-4-(2-methoxy-phenyl)-3,4,5,6-tetrahydro-2H-[1,2′]bipyrazinyl] | 10 to 100 |
| N#Cc1ccc(-c2cncc(N3CCN(c4ccncc4)CC3)n2)cc1 [compound 131, 4-(4-Pyridin-4-yl-3,4,5,6-tetrahydro-2H-[1,2′]bipyrazinyl-6′-yl)-benzonitrile] | 1 to 10 |
| NC(=O)c1ccc(-c2cnc(N)c(N3CCN(c4ccncc4)CC3)n2)cc1 [compound 74, 4-(3′-Amino-4-pyridin-4-yl-3,4,5,6-tetrahydro-2H-[1,2′]bipyrazinyl-6′-yl)-benzamide] | 1 to 10 |
| COc1ccccc1N1CCN(c2cncc(-c3ccc(C(F)(F)F)cc3)n2)CC1 [compound 188, 4-(2-Methoxy-phenyl)-6′-(4-trifluoromethyl-phenyl)-3,4,5,6-tetrahydro-2H-[1,2′]bipyrazinyl] | 10 to 100 |

Other lines, results leading:

| IC50 [µM] | Compound |
| --- | --- |
| 10 to 100 | COc1ccc(N2CCN(c3cncc(-c4cccc(C#N)c4)n3)CC2)cc1OC [compound 173, 3-[4-(3,4-Dimethoxy-phenyl)-3,4,5,6-tetrahydro-2H-[1,2′]bipyrazinyl-6′-yl]-benzonitrile] |
| 1 to 10 | COc1cccc(-c2cncc(N3CCN(c4ccc(OC)c(OC)c4)CC3)n2)c1 [compound 134, 4-(3,4-Dimethoxy-phenyl)-6′-(3-methoxy-phenyl)-3,4,5,6-tetrahydro-2H-[1,2′]bipyrazinyl] |
| 10 to 100 | c1cncc(-c2cncc(N3CCN(c4ccncc4)CC3)n2)c1 [compound 54, 4-Pyridin-4-yl-6′-pyridin-3-yl-3,4,5,6-tetrahydro-2H-[1,2′]bipyrazinyl] |
| < 1 | NC(=O)c1ccc(-c2cncc(N3CCN(c4ccccc4)CC3)n2)cc1 [Comp. 68, 4-(4-Phenyl-3,4,5,6-tetrahydro-2H-[1,2′]bipyrazinyl-6′-yl)-benzamide] |
| 10 to 100 | COc1ccccc1N1CCN(c2cncc(-c3ccccc3C)n2)CC1 [compound 87, 4-(2-Methoxy-phenyl)-6′-o-tolyl-3,4,5,6-tetrahydro-2H-[1,2′]bipyrazinyl] |
| 10 to 100 | Cc1ccccc1-c1cncc(N2CCN(c3ccccc3)CC2)n1 [compound 94, 4-Phenyl-6′-o-tolyl-3,4,5,6-tetrahydro-2H-[1,2′]bipyrazinyl] |
| 1 to 10 | CC(=O)c1cccc(-c2cncc(N3CCN(c4cccc(Cl)c4)CC3)n2)c1 [compound 101, 1-{3-[4-(3-Chloro-phenyl)-3,4,5,6-tetrahydro-2H-[1,2′]bipyrazinyl-6′-yl]-phenyl}-ethanone] |
| 10 to 100 | NC(=O)c1ccccc1-c1cncc(N2CCN(c3ccncc3)CC2)n1 [Comp. 70, 2-(4-Pyridin-4-yl-3,4,5,6-tetrahydro-2H-[1,2′]bipyrazinyl-6′-yl)-benzamide] |
